Results reported in US8163767B2, “Heterocyclic Janus Kinase 3 inhibitors” (Astellas Pharma Inc., priority 2005, dated 2012).

Target: T1, human JAK3 (Homo sapiens, UniProt P52333)
T1 construct: His (N); purchased Carna Bioscience Inc. (Kobe, Japan); host or cells: baculovirus expression system
Assay: Determination of Janus Kinase 3 (JAK3) inhibitory activity
Type: biochemical
Conditions: test compound 10^−8M; read-out: IR (JAK3 inhibition rate)
Procedure: Test 1: Determination of Janus Kinase 3 (JAK3) Inhibitory Activity
The assay for JAK3 activity was performed basically according to the method as proposed by Okimoto et al, as follows.
Purified kinase domain (KD) of human JAK3 was purchased from Carna Bioscience Inc. (Kobe, Japan). 796-1124 (end) amino acids of human JAK3 [accession number #NM_000215] was expressed as N-terminal His-tagged protein (41 kDa) using the baculovirus expression system and purified by using Ni-NTA affinity chromatography.
Biotin-Lyn-Substrate-peptide and ATP were used as substrates. Assay buffer consisted of 15 mM Tris-HCl pH7.5, 0.01% Tween 20 and 2 mM DTT. For the standard assay, 20 μL of substrate solution (Assay buffer containing 627 nM Biotin-Lyn-Substrate-2, 20 μM ATP and 25 mM MgCl2), 10 μL of assay buffer containing test compound and 20 μL of enzyme solution were added to the plate and mixed well.
After 1 hour incubation at ambient temperature, the plate was washed 4 times with wash buffer (50 mM Tris-HCl pH 7.5, 150 mM NaCl, 0.02% Tween 20), and then blocking buffer (wash buffer containing 0.1% Bovine serum albumin) was added to the plate. After 30 minutes incubation at ambient temperature, blocking buffer was removed and HRP-PY-20 solution (HRP-PY-20 500 times diluted with blocking buffer) was added. After 30 minutes incubation at ambient temperature, the plate was washed 4 times and TMB substrate solution (Sigma) was added to the plate. After 4 minutes incubation at ambient temperature, 1 M H2SO4 was added to the plate to stop the reaction. Enzyme activity was measured as optical density at 450 nm.

T1 sequence (P52333 796-1124): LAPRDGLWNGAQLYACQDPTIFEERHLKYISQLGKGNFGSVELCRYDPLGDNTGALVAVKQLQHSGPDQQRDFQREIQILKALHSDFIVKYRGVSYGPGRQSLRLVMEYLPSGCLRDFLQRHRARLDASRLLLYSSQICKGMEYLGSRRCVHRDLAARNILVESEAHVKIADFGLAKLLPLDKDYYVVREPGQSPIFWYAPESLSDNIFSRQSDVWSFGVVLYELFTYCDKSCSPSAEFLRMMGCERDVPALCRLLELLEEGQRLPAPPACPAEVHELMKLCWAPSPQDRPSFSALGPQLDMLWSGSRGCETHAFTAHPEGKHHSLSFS

Inhibition at 0.01 µM, > 50%:
CC1CCN(C(=O)N(C)CC#N)CC1n1c(=O)[nH]c2cnc3[nH]ccc3c21 (stereo not drawn) [Example 284, N-(Cyanomethyl)-N,4-dimethyl-3-(2-oxo-3,6-dihydroimidazo-[4,5-d]pyrrolo[2,3-b]pyridin-1(2H)-yl)-1-piperidinecarboxamide]
N#Cc1ccc(N2CCC(Nc3c(C(N)=O)cnc4[nH]cnc34)CC2)nc1 [Example 322, 7-{[1-(5-cyano-2-pyridinyl)-4-piperidinyl]amino}-3H-imidazo[4,5-b]pyridine-6-carboxamide]
C[C@@H]1CCCC[C@@H]1n1c(=O)[nH]c2cnc3[nH]cc(Br)c3c21 [Example 324, 8-bromo-1-[(1S,2R)-2-methylcyclohexyl]-3,6-dihydroimidazo[4,5-d]pyrrolo[2,3-b]pyridin-2(1H)-one]
